Experimental data published in paper PMC5513444, “The synthesis and evaluation of triazolopyrimidines as anti-tubercular agents” (Bioorganic & Medicinal Chemistry, 2017).
In brackets after ≈: the same amount, converted by molar mass. Read-outs that look alike come from different tables or passages of the source.

Assays:
[1] = system: HepG2 cells; assay: Cytotoxicity against HepG2 cell line (CellTiter-Glo); type: cell-based; details: for Selectivity index (SI) = IC50/MIC90: HepG2 IC50 / M. tuberculosis MIC90; for IC50: Homo sapiens, 48 h, HepG2, 2 days incubation, read-out: IC50 (concentration required to reduce the viability of HepG2 cells by 50%)
[2] = system: M. tuberculosis H37Rv; assay: MIC90 against M. tuberculosis in liquid medium; type: cell-based, Mycobacterium tuberculosis; details: liquid medium 7H9-Tw-OADC, aerobic, 5 days, average ± SD of two independent experiments, read-out: MIC (MIC90, minimum concentration required to inhibit growth of M. tuberculosis by 90%)
[3] = Mycobacterium tuberculosis, H37RV, 120 h

| Structure (SMILES) | Selectivity index (SI) = IC50/MIC90 [1] | IC50 [1] [µM] | MIC90 [2, 3] [µM] | melting point [°C] | MIC90 [2] [µM] |
| --- | --- | --- | --- | --- | --- |
| c1ccc(CCNc2cc(-c3ccccc3)nc3ncnn23)cc1 [Compound 39, N-Phenethyl-5-phenyl-[1,2,4]triazolo[1,5-a]pyrimidin-7-amine] | 3.5 | 27 | 7.7 ± 0.7 (≈ 2.43 µg/mL) | 164 to 165 | – |
| c1ccc(-c2cc(NCCc3ccncc3)n3ncnc3n2)cc1 [Compound 43, 5-Phenyl-N-(2-(pyridin-4-yl)ethyl)-[1,2,4]triazolo[1,5-a]pyrimidin-7-amine] | – | > 100 | > 20 | 231 to 233 | – |
| COc1ccc(CCNc2cc(C)nc3ncnn23)cc1 [Compound 20, N-(4-Methoxyphenethyl)-5-methyl-[1,2,4]triazolo[1,5-a]pyrimidin-7-amine] | – | > 100 | > 20 | 129 to 130 | – |
| c1ccc(CCCNc2cc(-c3ccccc3)nc3ncnn23)cc1 [Compound 40, 5-Phenyl-N-(3-phenylpropyl)-[1,2,4]triazolo[1,5-a]pyrimidin-7-amine] | – | 8.7 | > 20 | 143 to 145 | – |
| COc1ccc(CNc2cc(-c3ccccc3)nc3ncnn23)cc1 [Compound 38, N-(4-Methoxybenzyl)-5-phenyl-[1,2,4]triazolo[1,5-a]pyrimidin-7-amine] | – | 43 | > 20 | 162 to 163 | – |
| COc1ccc(CCNc2cc(-c3ccc(C(F)(F)F)cc3)nc3ncnn23)cc1 [Compound 15, N-(4-Methoxyphenethyl)-5-(4-(trifluoromethyl)phenyl)-[1,2,4]triazolo[1,5-a]pyrimidin-7-amine] | – | > 100 | > 20 | 191 to 193 | – |
| COc1ccc(CCNc2cc(-c3ccccn3)nc3nc(-c4ccccc4)nn23)cc1 [Compound 68, N-(4-Methoxyphenethyl)-2-phenyl-5-(pyridin-2-yl)-[1,2,4]triazolo[1,5-a]pyrimidin-7-amine] | – | > 100 | > 20 | 146 to 148 | >20 |
| c1ccc(-c2cc(NCCC3CCCCC3)n3ncnc3n2)cc1 [Compound 36, N-(2-Cyclohexylethyl)-5-phenyl-[1,2,4]triazolo[1,5-a]pyrimidin-7-amine] | >6 | > 100 | 17 ± 2.1 (≈ 5.46 µg/mL) | 168 to 169 | – |
| COc1ccc(CCNc2cc(-c3ccc(Cl)cc3)nc3ncnn23)cc1 [Compound 11, 5-(4-Chlorophenyl)-N-(4-methoxyphenethyl)-[1,2,4]triazolo[1,5-a]pyrimidin-7-amine] | – | 65 | > 20 | 178 to 180 | – |
| COc1ccc(CCNc2cc(C3CCCC3)nc3ncnn23)cc1 [Compound 24, 5-Cyclopentyl-N-(4-methoxyphenethyl)-[1,2,4]triazolo[1,5-a]pyrimidin-7-amine] | 17 | 95 | 5.5 ± 0.07 (≈ 1.86 µg/mL) | 99 to 100 | – |
| CCc1ccc(CCNc2cc(-c3ccccn3)nc3ncnn23)cc1 [Compound 56, N-(4-Ethylphenethyl)-5-(pyridin-2-yl)-[1,2,4]triazolo[1,5-a]pyrimidin-7-amine] | 220 | 44 | 0.2 ± 0.02 (≈ 0.0689 µg/mL) | 154 to 155 | – |
| COc1ccc(CCNc2cc(C3CCC3)nc3ncnn23)cc1 [Compound 23, 5-Cyclobutyl-N-(4-methoxyphenethyl)-[1,2,4]triazolo[1,5-a]pyrimidin-7-amine] | >34 | > 100 | 2.9 ± 0.71 (≈ 0.938 µg/mL) | 99 to 100 | – |
| CCc1cc(NCCc2ccc(OC)cc2)n2ncnc2n1 [Compound 21, 5-ethyl-N-(4-methoxyphenethyl)-[1,2,4]triazolo[1,5-a]pyrimidin-7-amine] | – | > 100 | > 20 | 70 to 72 | – |
| COc1ccc(Nc2cc(-c3ccccc3)nc3ncnn23)cc1 [Compound 37, N-(4-Methoxyphenyl)-5-phenyl-[1,2,4]triazolo[1,5-a]pyrimidin-7-amine] | – | 49 | > 20 | 200 to 202 | – |
| COc1ccc(CCNc2cc(-c3ccccn3)nc3ccnn23)cc1 [Compound 69, N-(4-Methoxyphenethyl)-5-(pyridin-2-yl)pyrazolo[1,5-a]pyrimidin-7-amine] | 9 | 23 | 2.5 ± 0.15 (≈ 0.864 µg/mL) | 116 to 117 | – |
| Cc1ccc(CCNc2cc(-c3ccccn3)nc3ncnn23)cc1 [Compound 55, N-(4-Methylphenethyl)-5-(pyridin-2-yl)-[1,2,4]triazolo[1,5-a]pyrimidin-7-amine] | >196 | > 100 | 0.52 ± 0.1 (≈ 0.172 µg/mL) | 194 to 196 | – |

| Structure (SMILES) | Selectivity index (SI) = IC50/MIC90 [1] | IC50 [1] [µM] | MIC90 [2, 3] [µM] | melting point [°C] | MIC90 [2] [µM] |
| --- | --- | --- | --- | --- | --- |
| COc1ccc(CCNc2cc(-c3ccccn3)nc3nc(C)nn23)cc1 [Compound 67, N-(4-Methoxyphenethyl)-2-methyl-5-(pyridin-2-yl)-[1,2,4]triazolo[1,5-a]pyrimidin-7-amine] | >26 | > 100 | 3.9 ± 0.21 (≈ 1.41 µg/mL) | 139 to 141 | – |
| COc1ccc(CCNc2cc(-c3ccccc3F)nc3ncnn23)cc1 [Compound 14, 5-(2-Fluorophenyl)-N-(4-methoxyphenethyl)-[1,2,4]triazolo[1,5-a]pyrimidin-7-amine] | >30 | > 100 | 3 ± 0.21 (≈ 1.09 µg/mL) | 153 to 155 | – |
| c1ccc(CCNc2cc(-c3ccccn3)nc3ncnn23)nc1 [Compound 52, 5-(Pyridin-2-yl)-N-(2-(pyridin-2-yl)ethyl)-[1,2,4]triazolo[1,5-a]pyrimidin-7-amine] | – | > 100 | > 20 | 156 to 157 | – |
| COc1ccc(CCNc2cc(-c3ccc(C)cc3)nc3ncnn23)cc1 [Compound 9, N-(4-Methoxyphenethyl)-5-(p-tolyl)-[1,2,4]triazolo[1,5-a]pyrimidin-7-amine] | – | 37 | > 20 | 155 to 156 | – |
| COCCNc1cc(-c2ccccc2)nc2ncnn12 [Compound 33, N-(2-Methoxyethyl)-5-phenyl-[1,2,4]triazolo[1,5-a]pyrimidin-7-amine] | – | > 100 | > 20 | 116 to 118 | – |
| CCCCNc1cc(-c2ccccc2)nc2ncnn12 [Compound 32, N-Butyl-5-phenyl-[1,2,4]triazolo[1,5-a]pyrimidin-7-amine] | – | 98 | > 20 | 125 to 126 | – |
| CNc1cc(-c2ccccc2)nc2ncnn12 [Compound 29, N-Methyl-5-phenyl-[1,2,4]triazolo[1,5-a]pyrimidin-7-amine] | – | > 20 | > 20 | 200 to 202 | – |
| CCc1ccc(CCNc2cc(-c3ccccc3)nc3ncnn23)cc1 [Compound 45, N-(4-Ethylphenethyl)-5-phenyl-[1,2,4]triazolo[1,5-a]pyrimidin-7-amine] | >138 | > 100 | 0.74 ± 0.1 (≈ 0.254 µg/mL) | 152 to 154 | – |
| Nc1cc(-c2ccccc2)nc2ncnn12 [Compound 28, 5-Phenyl-[1,2,4]triazolo[1,5-a]pyrimidin-7-amine] | – | > 20 | > 20 | 302 to 304 | – |
| COc1ccc(CCNc2cc(C3CCCCC3)nc3ncnn23)cc1 [Compound 25, 5-Cyclohexyl-N-(4-methoxyphenethyl)-[1,2,4]triazolo[1,5-a]pyrimidin-7-amine] | – | 47 | > 20 | 193 to 194 | – |
| FC(F)(F)c1ccc(CCNc2cc(-c3ccccc3)nc3ncnn23)cc1 [Compound 47, 5-Phenyl-N-(4-(trifluoromethyl)phenethyl)-[1,2,4]triazolo[1,5-a]pyrimidin-7-amine] | >38 | > 100 | 2.7 ± 0.7 (≈ 1.04 µg/mL) | 183 to 184 | – |
| COc1ccc(CC(=O)Nc2cc(-c3ccccc3)nc3ncnn23)cc1OC [Compound 50, 2-(3,4-Dimethoxyphenyl)-N-(5-phenyl-[1,2,4]triazolo[1,5-a]pyrimidin-7-yl)acetamide] | >10 | > 100 | 10 ± 1.1 (≈ 3.89 µg/mL) | 202 to 204 | – |
| COc1ccc(CCNc2cc(-c3ccccc3OC)nc3ncnn23)cc1 [Compound 8, N-(4-Methoxyphenethyl)-5-(2-methoxyphenyl)-[1,2,4]triazolo[1,5-a]pyrimidin-7-amine] | – | 87 | > 20 | 148 to 149 | – |
| COc1ccc(CCNc2cc(-c3cccnc3)nc3ncnn23)cc1 [Compound 17, N-(4-Methoxyphenethyl)-5-(pyridin-3-yl)-[1,2,4]triazolo[1,5-a]pyrimidin-7-amine] | – | > 100 | > 20 | 152 to 153 | – |
| COc1ccc(CCNc2cc(Cc3ccccc3)nc3ncnn23)cc1 [Compound 19, 5-Benzyl-N-(4-methoxyphenethyl)-[1,2,4]triazolo[1,5-a]pyrimidin-7-amine] | – | 57 | > 20 | 119 to 121 | – |
| COc1ccc(CCNc2cc(-c3ccc(F)cc3)nc3ncnn23)cc1 [Compound 13, 5-(4-Fluorophenyl)-N-(4-methoxyphenethyl)-[1,2,4]triazolo[1,5-a]pyrimidin-7-amine] | – | 89 | 4.4 ± 2 (≈ 1.6 µg/mL) | 153 to 155 | – |
